{"source": "patent US20090036424A1", "about": "“ASSOCIATION BETWEEN HLA-DRBI*07 ALLELE AND SUSCEPTIBILY TO INCREASED LEVELS OF ALAT FOLLOWING XIMELAGATRAN ADMINISTRATION” (AstraZeneca AB, priority 2005, published 2009)", "tested_on": "alanine aminotransferase (ALAT)", "assay": "ALAT elevation during longer-term ximelagatran treatment in clinical trials", "format": "in vivo, human", "description": "Phase III clinical trials have been performed using fixed doses of melagatran and ximelagatran for the prevention of VTE in hip or knee replacement surgery. In addition, clinical trials have been performed using ximelagatran for the treatment and long-term secondary prevention of VTE, and for the prevention of stroke in patients with non-valvular atrial fibrillation. Ximelagatran has also been tested for secondary thrombosis prophylaxis post-myocardial infarction/acute coronary syndrome (ACS).\nAlanine aminotransferase (ALAT) is an enzyme mostly expressed in the liver (EC 2.6.1.2). It is also called serum glutamate pyruvate transaminase (SGPT) or alanine transaminase (ALT). This enzyme is released into the plasma by liver cell death, which is a normal event. However, when liver cell death increases, ALAT levels rise above the normal range. The spill-over of this enzyme into blood is routinely measured as a marker of abnormal liver-cell damage. For example, alcoholic or viral hepatitis will increase ALAT levels, as will severe congestive heart failure. An elevated ALAT in the presence of normal levels of plasma alkaline phosphatase helps distinguish liver disease caused by liver-cell damage from diseases caused by problems in biliary ducts.\nElevations of ALAT are normally measured in multiples of the upper limit of normal (ULN), with a reference range of 15-45 U/L in most laboratories. In 1987, in a study of 19,877 healthy Air Force recruits, only 99 (0.5%) had confirmed ALAT elevations (as reviewed in Green & Flamm (2002) Gastroenterology 123:1367-1384).\nThe increase in ALAT values with ximelagatran usually occurred within the first 6 months of treatment and were mainly asymptomatic. […] Subject to the future regulatory approval of ximelagatran, regular liver function testing (LFT) using an appropriate algorithm may be required if ximelagatran is used for treatment periods exceeding a month. Studies are currently ongoing to try and establish the mechanism of the ALAT elevations, and their hepatic and overall clinical significance.", "data": [{"smiles": "CCOC(=O)CN[C@@H](C(=O)N1CC[C@H]1C(=O)NCc1ccc(/C(N)=N\\O)cc1)C1CCCCC1", "note": "[ximelagatran, EtOOC—CH2—(R)Cgl-Aze-Pab-OH]", "values": [{"measurement": "patients exhibiting levels of alanine aminotransferase (ALAT) 3-fold or more above the upper limit of normal (≧3×ULN)", "setting": "longer-term treatment (>35 days), 1.2% in the comparator groups", "value": 7.9, "unit": "%"}, {"measurement": "reversibility of ALAT increases", "setting": "regardless of whether treatment was continued or discontinued", "value": "reversible in most patients"}, {"measurement": "time of occurrence of the increase in ALAT values", "setting": "usually, from start of treatment, mainly asymptomatic", "value": "≤ 6", "unit": "months"}]}]}
